Results as given in patent publication US9809578B2, “Pyrazolyl urea, thiourea, guanidine and cyanoguanidine compounds as trkA kinase inhibitors” (Array BioPharma Inc., priority 2012, dated 2017).

Tests used:
Type in all cases: biochemical
Conditions in all cases: 10 μM, ATP near Km
MINK = target: T1, MINK (Homo sapiens, UniProt Q8N4C8); experiment: KinaseProfiler MINK
T1 construct: purchased Millipore, Inc. (KinaseProfiler service)
Description: (§1) The compound was run in duplicate at a concentration of ATP near the Km for each individual kinase according to Millipore's specifications.

Lck = target: T2, Lck (Homo sapiens, UniProt P06239); experiment: KinaseProfiler Lck
T2 construct: purchased Millipore, Inc. (KinaseProfiler service)
Description: as §1

SRC = target: T3, SRC (Homo sapiens, UniProt P12931); experiment: KinaseProfiler SRC
T3 construct: purchased Millipore, Inc. (KinaseProfiler service)
Description: as §1

SIK = target: T4, SIK (Homo sapiens, UniProt P57059); experiment: KinaseProfiler SIK
T4 construct: purchased Millipore, Inc. (KinaseProfiler service)
Description: as §1

EphA5 = target: T5, EphA5 (Homo sapiens, UniProt P54756); experiment: KinaseProfiler EphA5
T5 construct: purchased Millipore, Inc. (KinaseProfiler service)
Description: as §1

FGFR1 = target: T6, FGFR1 (Homo sapiens, UniProt P11362); experiment: KinaseProfiler FGFR1
T6 construct: purchased Millipore, Inc. (KinaseProfiler service)
Description: as §1

Pim-2 = target: T7, Pim-2 (Homo sapiens, UniProt Q9P1W9); experiment: KinaseProfiler Pim-2
T7 construct: purchased Millipore, Inc. (KinaseProfiler service)
Description: as §1

BrSK1 = target: T8, BrSK1 (Homo sapiens, UniProt Q8TDC3); experiment: KinaseProfiler BrSK1
T8 construct: purchased Millipore (KinaseProfiler service)
Description: as §1

Ret = target: T9, Ret (Homo sapiens, UniProt P07949); experiment: KinaseProfiler Ret
T9 construct: purchased Millipore, Inc. (KinaseProfiler service)
Description: as §1

IRAK4 = target: T10, IRAK4 (Homo sapiens, UniProt Q9NWZ3); experiment: KinaseProfiler IRAK4
T10 construct: purchased Millipore, Inc. (KinaseProfiler service)
Description: as §1

PKD1 = target: T11, PKD1 (Homo sapiens, UniProt Q15139); experiment: KinaseProfiler PKD1
T11 construct: purchased Millipore, Inc. (KinaseProfiler service)
Description: as §1

ALK4 = target: T12, ALK4 (Homo sapiens, UniProt P36896); experiment: KinaseProfiler ALK4
T12 construct: purchased Millipore (KinaseProfiler service)
Description: as §1

MAP4K2 = target: T13, MAP4K2 (Homo sapiens, UniProt Q12851); experiment: KinaseProfiler MAP4K2
T13 construct: purchased Millipore, Inc. (KinaseProfiler service)
T13 sequence (Q12851 whole entry): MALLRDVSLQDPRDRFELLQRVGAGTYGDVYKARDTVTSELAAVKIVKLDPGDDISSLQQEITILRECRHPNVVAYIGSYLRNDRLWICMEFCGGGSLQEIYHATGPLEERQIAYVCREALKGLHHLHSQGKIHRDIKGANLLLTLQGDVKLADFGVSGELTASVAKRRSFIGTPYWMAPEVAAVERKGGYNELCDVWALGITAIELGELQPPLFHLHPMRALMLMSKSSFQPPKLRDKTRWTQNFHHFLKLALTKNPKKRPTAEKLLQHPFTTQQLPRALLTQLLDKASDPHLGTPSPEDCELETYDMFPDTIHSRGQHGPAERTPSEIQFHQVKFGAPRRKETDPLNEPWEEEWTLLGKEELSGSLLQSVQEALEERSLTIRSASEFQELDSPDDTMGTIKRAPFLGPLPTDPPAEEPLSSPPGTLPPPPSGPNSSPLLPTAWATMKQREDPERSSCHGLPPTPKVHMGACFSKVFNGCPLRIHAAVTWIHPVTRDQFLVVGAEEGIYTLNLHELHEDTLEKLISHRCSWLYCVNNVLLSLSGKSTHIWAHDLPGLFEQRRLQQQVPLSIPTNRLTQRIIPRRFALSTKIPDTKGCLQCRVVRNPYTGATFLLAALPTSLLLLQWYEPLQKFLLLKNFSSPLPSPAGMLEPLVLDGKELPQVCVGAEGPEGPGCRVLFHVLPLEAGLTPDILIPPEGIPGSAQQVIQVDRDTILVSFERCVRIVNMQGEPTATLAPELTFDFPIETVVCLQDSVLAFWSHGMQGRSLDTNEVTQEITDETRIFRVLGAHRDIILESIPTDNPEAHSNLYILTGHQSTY
Description: as §1

Ros = target: T14, Ros (Homo sapiens, UniProt P08922); experiment: KinaseProfiler Ros
T14 construct: purchased Millipore, Inc. (KinaseProfiler service)
Description: as §1

MAPKAP-K2 = target: T15, MAPKAP-K2 (Homo sapiens, UniProt P49137); experiment: KinaseProfiler MAPKAP-K2
T15 construct: purchased Millipore, Inc. (KinaseProfiler service)
Description: as §1

CK1gamma2 = target: T16, CK1gamma2 (Homo sapiens, UniProt P78368); experiment: KinaseProfiler CK1gamma2
T16 construct: purchased Millipore, Inc. (KinaseProfiler service)
Description: as §1

p38gamma = target: T17, p38gamma (Homo sapiens, UniProt P53778); experiment: KinaseProfiler p38gamma
T17 construct: purchased Millipore, Inc. (KinaseProfiler service)
Description: as §1

ULK2 = target: T18, ULK2 (Homo sapiens, UniProt Q8IYT8); experiment: KinaseProfiler ULK2
T18 construct: purchased Millipore, Inc. (KinaseProfiler service)
Description: as §1

PKCdelta = target: T19, PKCdelta (Homo sapiens, UniProt Q05655); experiment: KinaseProfiler PKCdelta
T19 construct: purchased Millipore, Inc. (KinaseProfiler service)
Description: as §1

PRKG1beta = target: T20, PRKG1beta (Homo sapiens, UniProt Q13976); experiment: KinaseProfiler PRKG1beta
T20 construct: purchased Millipore, Inc. (KinaseProfiler service)
Description: as §1

Abl-P = target: T21, Abl-P (Homo sapiens, UniProt P00519); experiment: KinaseProfiler Abl-P
T21 construct: purchased Millipore (KinaseProfiler service)
Description: as §1

PASK = target: T22, PASK (Homo sapiens, UniProt Q96RG2); experiment: KinaseProfiler PASK
T22 construct: purchased Millipore, Inc. (KinaseProfiler service)
Description: as §1

DCAMKL2 = target: T23, DCAMKL2 (Homo sapiens, UniProt Q8N568); experiment: KinaseProfiler DCAMKL2
T23 construct: purchased Millipore, Inc. (KinaseProfiler service)
Description: as §1

HIPK1 = target: T24, HIPK1 (Homo sapiens, UniProt Q86Z02); experiment: KinaseProfiler HIPK1
T24 construct: purchased Millipore, Inc. (KinaseProfiler service)
T24 sequence (Q86Z02 whole entry): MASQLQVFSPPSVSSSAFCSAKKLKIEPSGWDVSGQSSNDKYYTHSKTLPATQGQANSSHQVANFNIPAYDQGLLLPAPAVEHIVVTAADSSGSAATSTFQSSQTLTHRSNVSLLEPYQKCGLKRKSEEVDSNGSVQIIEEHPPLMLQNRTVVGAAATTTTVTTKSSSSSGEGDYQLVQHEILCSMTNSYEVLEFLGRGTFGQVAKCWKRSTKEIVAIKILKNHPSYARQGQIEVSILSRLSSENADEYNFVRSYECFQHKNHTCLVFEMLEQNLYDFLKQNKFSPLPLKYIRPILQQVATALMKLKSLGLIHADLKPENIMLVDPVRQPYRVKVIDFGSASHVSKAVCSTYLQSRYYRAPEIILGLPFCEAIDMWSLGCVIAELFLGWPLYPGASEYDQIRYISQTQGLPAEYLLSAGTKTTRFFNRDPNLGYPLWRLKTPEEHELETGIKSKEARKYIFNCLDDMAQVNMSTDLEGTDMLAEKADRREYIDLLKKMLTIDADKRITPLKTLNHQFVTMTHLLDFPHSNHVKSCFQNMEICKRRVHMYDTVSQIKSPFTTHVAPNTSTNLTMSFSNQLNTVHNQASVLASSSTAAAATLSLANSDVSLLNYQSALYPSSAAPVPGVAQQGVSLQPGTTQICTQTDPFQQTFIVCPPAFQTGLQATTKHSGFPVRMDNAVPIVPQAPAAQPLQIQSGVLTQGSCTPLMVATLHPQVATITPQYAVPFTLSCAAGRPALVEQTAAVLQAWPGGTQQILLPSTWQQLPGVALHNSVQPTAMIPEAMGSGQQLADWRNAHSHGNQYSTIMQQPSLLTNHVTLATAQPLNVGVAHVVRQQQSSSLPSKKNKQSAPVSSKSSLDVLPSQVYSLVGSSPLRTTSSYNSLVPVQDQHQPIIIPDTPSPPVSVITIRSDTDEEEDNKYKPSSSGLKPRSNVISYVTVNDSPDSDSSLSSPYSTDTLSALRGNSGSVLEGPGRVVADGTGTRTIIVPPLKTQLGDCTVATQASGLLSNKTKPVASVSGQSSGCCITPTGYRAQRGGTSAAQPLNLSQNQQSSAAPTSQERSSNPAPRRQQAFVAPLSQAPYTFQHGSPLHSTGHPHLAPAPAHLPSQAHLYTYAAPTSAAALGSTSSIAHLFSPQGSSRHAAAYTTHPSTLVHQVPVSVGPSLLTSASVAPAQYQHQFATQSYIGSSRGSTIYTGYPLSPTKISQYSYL
Description: as §1

AURKA = target: T25, AURKA (Homo sapiens, UniProt O14965); experiment: KinaseProfiler AURKA
T25 construct: purchased Millipore (KinaseProfiler service)
Description: as §1

Fms = target: T26, Fms (Homo sapiens, UniProt P07333); experiment: KinaseProfiler Fms
T26 construct: purchased Millipore, Inc. (KinaseProfiler service)
Description: as §1

Fyn = target: T27, Fyn (Homo sapiens, UniProt P06241); experiment: KinaseProfiler Fyn
T27 construct: purchased Millipore, Inc. (KinaseProfiler service)
T27 sequence (P06241 whole entry): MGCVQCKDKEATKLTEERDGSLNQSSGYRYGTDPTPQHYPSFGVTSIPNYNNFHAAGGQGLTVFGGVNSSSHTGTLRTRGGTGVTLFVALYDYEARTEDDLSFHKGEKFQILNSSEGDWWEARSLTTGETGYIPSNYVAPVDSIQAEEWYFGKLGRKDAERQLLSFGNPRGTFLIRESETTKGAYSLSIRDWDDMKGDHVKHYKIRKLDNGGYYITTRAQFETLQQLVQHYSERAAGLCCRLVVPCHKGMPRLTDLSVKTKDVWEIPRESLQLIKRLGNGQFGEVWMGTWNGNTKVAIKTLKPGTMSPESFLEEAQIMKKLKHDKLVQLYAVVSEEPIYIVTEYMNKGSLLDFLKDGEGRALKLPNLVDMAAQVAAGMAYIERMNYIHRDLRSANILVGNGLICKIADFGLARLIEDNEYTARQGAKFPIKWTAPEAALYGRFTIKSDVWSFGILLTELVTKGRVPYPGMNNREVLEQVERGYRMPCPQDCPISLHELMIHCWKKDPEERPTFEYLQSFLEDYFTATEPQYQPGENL
Description: as §1

EphB3 = target: T28, EphB3 (Homo sapiens, UniProt P54753); experiment: KinaseProfiler EphB3
T28 construct: purchased Millipore, Inc. (KinaseProfiler service)
T28 sequence (P54753 34-998): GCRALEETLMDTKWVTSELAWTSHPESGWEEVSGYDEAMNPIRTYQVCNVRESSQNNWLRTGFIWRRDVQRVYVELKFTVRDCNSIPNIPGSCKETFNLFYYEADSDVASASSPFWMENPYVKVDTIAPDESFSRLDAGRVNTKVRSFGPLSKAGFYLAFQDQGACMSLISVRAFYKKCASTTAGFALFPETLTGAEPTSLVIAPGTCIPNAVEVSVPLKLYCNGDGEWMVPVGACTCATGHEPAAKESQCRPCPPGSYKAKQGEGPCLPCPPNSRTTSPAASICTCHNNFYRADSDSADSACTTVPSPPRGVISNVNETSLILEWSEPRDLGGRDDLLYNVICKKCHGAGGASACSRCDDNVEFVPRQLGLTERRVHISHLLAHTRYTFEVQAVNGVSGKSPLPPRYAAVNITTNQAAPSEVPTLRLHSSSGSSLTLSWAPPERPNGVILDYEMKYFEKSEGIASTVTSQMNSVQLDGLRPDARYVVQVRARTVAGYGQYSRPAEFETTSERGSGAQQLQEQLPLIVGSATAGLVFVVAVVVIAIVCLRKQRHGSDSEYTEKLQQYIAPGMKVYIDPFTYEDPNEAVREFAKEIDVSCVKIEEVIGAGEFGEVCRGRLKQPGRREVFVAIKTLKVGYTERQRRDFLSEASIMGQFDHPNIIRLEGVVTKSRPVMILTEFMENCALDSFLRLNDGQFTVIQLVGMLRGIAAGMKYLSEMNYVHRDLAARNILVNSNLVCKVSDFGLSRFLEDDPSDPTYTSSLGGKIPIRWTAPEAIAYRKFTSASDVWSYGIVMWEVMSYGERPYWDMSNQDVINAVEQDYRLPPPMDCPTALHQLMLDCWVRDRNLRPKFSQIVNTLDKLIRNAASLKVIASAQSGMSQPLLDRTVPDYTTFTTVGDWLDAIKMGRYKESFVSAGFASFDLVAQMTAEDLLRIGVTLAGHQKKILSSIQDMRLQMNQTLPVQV
Description: as §1

MARK1 = target: T29, MARK1 (Homo sapiens, UniProt Q9P0L2); experiment: KinaseProfiler MARK1
T29 construct: purchased Millipore, Inc. (KinaseProfiler service)
Description: as §1

Met = target: T30, Met (Homo sapiens, UniProt P08581); experiment: KinaseProfiler Met
T30 construct: purchased Millipore, Inc. (KinaseProfiler service)
Description: as §1

PAK4 = target: T31, PAK4 (Homo sapiens, UniProt O96013); experiment: KinaseProfiler PAK4
T31 construct: purchased Millipore, Inc. (KinaseProfiler service)
T31 sequence (O96013 whole entry): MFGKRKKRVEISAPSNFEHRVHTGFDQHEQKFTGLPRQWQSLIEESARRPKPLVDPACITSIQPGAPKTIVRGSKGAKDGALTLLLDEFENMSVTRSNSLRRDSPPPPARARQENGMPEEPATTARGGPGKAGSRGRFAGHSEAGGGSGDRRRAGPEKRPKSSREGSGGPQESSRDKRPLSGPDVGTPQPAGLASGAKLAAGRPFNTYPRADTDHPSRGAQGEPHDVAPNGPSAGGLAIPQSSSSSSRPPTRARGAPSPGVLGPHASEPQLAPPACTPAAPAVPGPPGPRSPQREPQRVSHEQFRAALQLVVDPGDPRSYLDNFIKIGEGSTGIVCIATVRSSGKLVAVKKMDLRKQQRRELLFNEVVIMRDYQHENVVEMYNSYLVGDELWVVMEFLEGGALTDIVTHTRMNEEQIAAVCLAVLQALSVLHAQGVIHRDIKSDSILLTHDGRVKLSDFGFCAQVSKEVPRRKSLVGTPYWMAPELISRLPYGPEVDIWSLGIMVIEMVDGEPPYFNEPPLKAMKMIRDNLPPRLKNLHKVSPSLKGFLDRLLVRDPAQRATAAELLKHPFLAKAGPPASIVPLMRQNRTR
Description: as §1

IKKalpha = target: T32, IKKalpha (Homo sapiens, UniProt O15111); experiment: KinaseProfiler IKKalpha
T32 construct: purchased Millipore, Inc. (KinaseProfiler service)
Description: as §1

MKNK2 = target: T33, MKNK2 (Homo sapiens, UniProt Q9HBH9); experiment: KinaseProfiler MKNK2
T33 construct: purchased Millipore, Inc. (KinaseProfiler service)
Description: as §1

Yes = target: T34, Yes (Homo sapiens, UniProt P07947); experiment: KinaseProfiler Yes
T34 construct: purchased Millipore, Inc. (KinaseProfiler service)
T34 sequence (P07947 whole entry): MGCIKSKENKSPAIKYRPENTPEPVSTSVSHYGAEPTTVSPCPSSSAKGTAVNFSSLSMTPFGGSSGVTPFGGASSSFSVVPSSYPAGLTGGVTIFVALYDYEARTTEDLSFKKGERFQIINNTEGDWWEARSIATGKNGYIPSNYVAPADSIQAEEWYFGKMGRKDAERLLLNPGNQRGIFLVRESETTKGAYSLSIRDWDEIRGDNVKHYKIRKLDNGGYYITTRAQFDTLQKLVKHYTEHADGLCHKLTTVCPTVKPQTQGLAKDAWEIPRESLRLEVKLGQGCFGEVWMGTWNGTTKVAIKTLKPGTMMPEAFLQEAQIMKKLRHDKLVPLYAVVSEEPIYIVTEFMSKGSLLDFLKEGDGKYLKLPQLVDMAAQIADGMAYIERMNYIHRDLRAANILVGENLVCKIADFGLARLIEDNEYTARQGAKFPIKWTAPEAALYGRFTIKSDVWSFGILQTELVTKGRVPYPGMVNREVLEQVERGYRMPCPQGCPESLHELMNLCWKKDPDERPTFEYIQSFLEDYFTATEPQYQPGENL
Description: as §1

CK1_y = experiment: KinaseProfiler CK1_y
CAMK4 = target: T35, CAMK4 (Homo sapiens, UniProt Q16566); experiment: KinaseProfiler CAMK4
T35 construct: purchased Millipore (KinaseProfiler service)
Description: as §1

TAO3 = target: T36, TAO3 (Homo sapiens, UniProt Q9H2K8); experiment: KinaseProfiler TAO3
T36 construct: purchased Millipore, Inc. (KinaseProfiler service)
Description: as §1

NEK7 = target: T37, NEK7 (Homo sapiens, UniProt Q8TDX7); experiment: KinaseProfiler NEK7
T37 construct: purchased Millipore, Inc. (KinaseProfiler service)
Description: as §1

ERK1 = target: T38, ERK1 (Homo sapiens, UniProt P27361); experiment: KinaseProfiler ERK1
T38 construct: purchased Millipore, Inc. (KinaseProfiler service)
T38 sequence (P27361 whole entry): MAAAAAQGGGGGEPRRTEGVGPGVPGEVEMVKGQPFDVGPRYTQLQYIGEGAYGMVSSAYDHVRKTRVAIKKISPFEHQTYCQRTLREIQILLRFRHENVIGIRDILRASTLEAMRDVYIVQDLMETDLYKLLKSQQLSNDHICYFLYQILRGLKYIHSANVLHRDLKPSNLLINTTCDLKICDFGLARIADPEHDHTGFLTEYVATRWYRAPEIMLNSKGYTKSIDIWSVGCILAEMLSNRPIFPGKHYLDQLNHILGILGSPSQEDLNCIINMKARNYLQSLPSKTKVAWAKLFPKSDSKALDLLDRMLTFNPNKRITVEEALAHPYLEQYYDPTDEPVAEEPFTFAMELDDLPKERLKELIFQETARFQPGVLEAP
Description: as §1

PTK5 = target: T39, PTK5 (Homo sapiens, UniProt P42685); experiment: KinaseProfiler PTK5
T39 construct: purchased Millipore, Inc. (KinaseProfiler service)
Description: as §1

LKB1 = target: T40, LKB1 (Homo sapiens, UniProt Q15831); experiment: KinaseProfiler LKB1
T40 construct: purchased Millipore, Inc. (KinaseProfiler service)
Description: as §1

ITK = target: T41, ITK (Homo sapiens, UniProt Q08881); experiment: KinaseProfiler ITK
T41 construct: purchased Millipore, Inc. (KinaseProfiler service)
Description: as §1

DAPK1 = target: T42, DAPK1 (Homo sapiens, UniProt P53355); experiment: KinaseProfiler DAPK1
T42 construct: purchased Millipore, Inc. (KinaseProfiler service)
Description: as §1

SMILES: Cc1c(-c2cnn(C)c2)nn(-c2ccccc2)c1NC(=O)Nc1cc(C(F)(F)F)nn1-c1ccccc1 [Example 3, 1-(1′,4-dimethyl-1-phenyl-1H,1′H-[3,4′-bipyrazol]-5-yl)-3-(1-phenyl-3-(trifluoromethyl)-1H-pyrazol-5-yl)urea]
- Avg POC (MINK): 105 POC
- Avg POC (Lck): 93 POC
- Avg POC (SRC): 102.5 POC
- Avg POC (SIK): 154.5 POC
- Avg POC (EphA5): 116 POC
- Avg POC (FGFR1): 96 POC
- Avg POC (Pim-2): 117.5 POC
- Avg POC (BrSK1): 127 POC
- Avg POC (Ret): 89.5 POC
- Avg POC (IRAK4): 131.5 POC
- Avg POC (PKD1): 100.5 POC
- Avg POC (ALK4): 104.5 POC
- Avg POC (MAP4K2): 113 POC
- Avg POC (Ros): 97 POC
- Avg POC (MAPKAP-K2): 142.5 POC
- Avg POC (CK1gamma2): 109 POC
- Avg POC (p38gamma): 114.5 POC
- Avg POC (ULK2): 98 POC
- Avg POC (PKCdelta): 98.5 POC
- Avg POC (PRKG1beta): 98 POC
- Avg POC (Abl-P): 154.5 POC
- Avg POC (PASK): 147 POC
- Avg POC (DCAMKL2): 222.5 POC
- Avg POC (HIPK1): 115.5 POC
- Avg POC (AURKA): 121 POC
- Avg POC (Fms): 91.5 POC
- Avg POC (Fyn): 110 POC
- Avg POC (EphB3): 63 POC
- Avg POC (MARK1): 112 POC
- Avg POC (Met): 129 POC
- Avg POC (PAK4): 103 POC
- Avg POC (IKKalpha): 127 POC
- Avg POC (MKNK2): 99 POC
- Avg POC (Yes): 114 POC
- Avg POC (CK1_y): 98 POC
- Avg POC (CAMK4): 147.5 POC
- Avg POC (TAO3): 94 POC
- Avg POC (NEK7): 118 POC
- Avg POC (ERK1): 111.5 POC
- Avg POC (PTK5): 102 POC
- Avg POC (LKB1): 95.5 POC
- Avg POC (ITK): 128 POC
- Avg POC (DAPK1): 137.5 POC
